Consider ten compounds from ChEMBL document CHEMBL1255556, “6-Alkoxyisoindolin-1-one based dopamine D2 partial agonists as potential antipsychotics” (Bioorg Med Chem Lett, 2010).

For data set [1], the target named is T1, 5-hydroxytryptamine receptor 1A (Homo sapiens, UniProt P08908).
T1 sequence (P08908 whole entry): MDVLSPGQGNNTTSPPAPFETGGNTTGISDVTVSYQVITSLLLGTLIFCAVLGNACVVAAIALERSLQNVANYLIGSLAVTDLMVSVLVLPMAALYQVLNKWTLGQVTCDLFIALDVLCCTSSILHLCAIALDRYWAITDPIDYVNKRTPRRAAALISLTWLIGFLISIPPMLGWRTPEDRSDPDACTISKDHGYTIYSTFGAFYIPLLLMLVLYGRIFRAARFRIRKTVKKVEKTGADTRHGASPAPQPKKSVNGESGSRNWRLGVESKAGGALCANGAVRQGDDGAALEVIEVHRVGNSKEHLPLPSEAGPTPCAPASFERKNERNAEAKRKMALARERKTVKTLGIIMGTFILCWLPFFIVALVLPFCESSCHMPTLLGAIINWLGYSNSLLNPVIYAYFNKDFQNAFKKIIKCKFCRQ
As to the kind of experiment: biochemical.
Description: Displacement of [3H]-8-OH-DPAT from human 5HT1A receptor expressed in HeLa cells

Data set [2] concerns the target T2, 5-hydroxytryptamine receptor 1A (Homo sapiens) (UniProt P08908).
T2 sequence (whole entry): T1 sequence (P08908 whole entry)
As to the kind of experiment: Intrinsic activity at human […] 5HT1A receptor expressed in HeLa cells by [3H]-thymidine uptake assay. Format: cell-based.

The target of data set [3] is 5-hydroxytryptamine receptor 2A (Homo sapiens, UniProt P28223). As to the kind of experiment: Binding affinity to human 5HT2A receptor.
Sequence of 5-hydroxytryptamine receptor 2A (P28223 whole entry): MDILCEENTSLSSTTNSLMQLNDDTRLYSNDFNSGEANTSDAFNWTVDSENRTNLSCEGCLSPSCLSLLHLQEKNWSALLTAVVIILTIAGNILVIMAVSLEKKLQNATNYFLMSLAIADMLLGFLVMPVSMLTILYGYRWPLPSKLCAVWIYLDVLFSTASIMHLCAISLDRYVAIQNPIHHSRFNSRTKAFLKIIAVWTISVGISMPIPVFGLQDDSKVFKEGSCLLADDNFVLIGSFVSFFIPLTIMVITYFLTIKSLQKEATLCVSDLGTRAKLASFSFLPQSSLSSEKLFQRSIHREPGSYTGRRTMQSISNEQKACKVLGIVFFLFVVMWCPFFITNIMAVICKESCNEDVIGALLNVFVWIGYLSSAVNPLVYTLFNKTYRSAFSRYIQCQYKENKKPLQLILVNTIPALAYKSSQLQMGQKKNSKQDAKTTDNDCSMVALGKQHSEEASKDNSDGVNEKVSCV
Data set [4] relates to Rattus norvegicus. As to the kind of experiment: Ex vivo D2 receptor occupancy in rat striatum assessed as inhibition [3H]-raclopride binding at 1 mg/kg, po. Format: functional. Also on record: scale not given: the % may be the effect or the level left.
The target in data set [5] is T3, Sodium-dependent serotonin transporter (Homo sapiens, UniProt P31645). As to the kind of experiment: Displacement of [3H]-citalopram from human serotonin transporter expressed in HEK 293 cells by scintillation proximity assay. Format: cell-based, HEK293.
T3 sequence (P31645 whole entry): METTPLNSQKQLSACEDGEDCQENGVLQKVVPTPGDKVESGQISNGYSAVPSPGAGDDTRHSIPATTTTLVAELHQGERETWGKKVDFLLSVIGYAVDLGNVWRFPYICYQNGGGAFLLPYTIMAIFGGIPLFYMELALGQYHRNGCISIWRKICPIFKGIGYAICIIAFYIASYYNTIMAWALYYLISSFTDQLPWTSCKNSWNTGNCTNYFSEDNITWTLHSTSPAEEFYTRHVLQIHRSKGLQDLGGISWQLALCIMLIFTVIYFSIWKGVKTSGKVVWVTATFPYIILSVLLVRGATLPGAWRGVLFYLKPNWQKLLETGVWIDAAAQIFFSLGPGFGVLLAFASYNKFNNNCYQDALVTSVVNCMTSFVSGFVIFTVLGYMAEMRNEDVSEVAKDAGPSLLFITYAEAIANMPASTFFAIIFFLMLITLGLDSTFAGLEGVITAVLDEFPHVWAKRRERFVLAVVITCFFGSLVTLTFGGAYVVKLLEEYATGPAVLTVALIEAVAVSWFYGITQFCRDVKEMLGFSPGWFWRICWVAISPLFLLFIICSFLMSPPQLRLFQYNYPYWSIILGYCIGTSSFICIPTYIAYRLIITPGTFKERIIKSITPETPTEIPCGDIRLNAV
Data set [6] deals with Rattus norvegicus. The data set is described as follows: Ex vivo D2 receptor occupancy in po dosed rat striatum assessed as inhibition [3H]-raclopride binding at 47 ng/ml plasma concentration. Format: functional. Details: scale not given: the % may be the effect or the level left.
Data set [7] is described as follows: Ratio of drug level in brain to plasma in po dosed rat. Format: ADME, organism-based. The settings on record: read-out: BPR.
For data set [8], the target named is Voltage-gated inwardly rectifying potassium channel KCNH2 (Homo sapiens, UniProt Q12809).
Sequence of Voltage-gated inwardly rectifying potassium channel KCNH2 (Q12809 whole entry): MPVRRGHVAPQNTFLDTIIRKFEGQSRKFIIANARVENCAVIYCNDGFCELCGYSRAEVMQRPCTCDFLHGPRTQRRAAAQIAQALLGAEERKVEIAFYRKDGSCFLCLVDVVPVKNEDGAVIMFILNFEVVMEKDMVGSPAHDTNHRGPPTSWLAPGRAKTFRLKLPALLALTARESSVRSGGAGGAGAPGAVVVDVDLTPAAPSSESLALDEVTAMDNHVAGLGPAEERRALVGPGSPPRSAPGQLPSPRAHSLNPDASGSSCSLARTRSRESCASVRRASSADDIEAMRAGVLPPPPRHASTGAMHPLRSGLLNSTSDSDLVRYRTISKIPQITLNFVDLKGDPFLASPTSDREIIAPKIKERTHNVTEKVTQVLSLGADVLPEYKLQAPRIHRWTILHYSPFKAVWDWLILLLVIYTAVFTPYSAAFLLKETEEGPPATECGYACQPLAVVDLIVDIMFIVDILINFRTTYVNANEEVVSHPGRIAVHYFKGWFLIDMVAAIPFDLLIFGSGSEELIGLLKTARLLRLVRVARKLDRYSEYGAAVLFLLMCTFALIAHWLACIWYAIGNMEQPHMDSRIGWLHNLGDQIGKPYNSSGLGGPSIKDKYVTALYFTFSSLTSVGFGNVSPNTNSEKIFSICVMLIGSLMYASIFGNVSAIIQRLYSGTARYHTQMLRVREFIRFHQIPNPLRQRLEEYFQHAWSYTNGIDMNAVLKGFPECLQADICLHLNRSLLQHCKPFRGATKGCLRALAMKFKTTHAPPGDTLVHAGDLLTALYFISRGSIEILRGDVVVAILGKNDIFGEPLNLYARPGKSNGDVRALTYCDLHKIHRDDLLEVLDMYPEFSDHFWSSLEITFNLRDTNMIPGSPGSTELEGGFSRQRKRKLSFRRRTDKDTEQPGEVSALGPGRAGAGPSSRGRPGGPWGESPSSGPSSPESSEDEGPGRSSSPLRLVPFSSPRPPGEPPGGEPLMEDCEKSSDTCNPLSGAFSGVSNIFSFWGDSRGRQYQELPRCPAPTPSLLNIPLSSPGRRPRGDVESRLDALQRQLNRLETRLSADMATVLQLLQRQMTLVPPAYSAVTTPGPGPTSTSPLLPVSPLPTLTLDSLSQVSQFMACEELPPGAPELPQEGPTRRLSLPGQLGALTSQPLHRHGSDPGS
Description: Displacement of [3H]dofetilide from human ERG
In data set [9] the test system is Rattus norvegicus. As to the kind of experiment: Ex vivo D2 receptor occupancy in po dosed rat striatum assessed as inhibition [3H]-raclopride binding at 188 ng/ml plasma concentration. The format is functional. Details: scale not given: the % may be the effect or the level left.
Data set [10] deals with T3, Sodium-dependent serotonin transporter. As to the kind of experiment: Displacement of [3H]-citalopram from human serotonin transporter expressed in HEK 293 cells. Format: cell-based, HEK293. Background: Displacement assays read how much labelled ligand stays bound in the presence of the test substance.
The subject of data set [11] is Mus musculus. The data set is described as follows: Antipsychotic activity in po dosed mouse assessed as inhibition of spontaneous locomotor activity. Format: functional. To be noted: for minimal effective dose: read-out: MED.
The target of data set [12] is T1, 5-hydroxytryptamine receptor 1A. As to the kind of experiment: Binding affinity to human 5HT1A receptor expressed in HeLa cells by scintillation proximity assay. Format: cell-based. (In general: In a scintillation proximity assay essentially only radioactivity close to the scintillant gives light.)
Data set [13] is described as follows: Apparent intrinsic clearance in human liver microsomes. The format is ADME, Microsome. For orientation: Microsomes from liver hold many membrane-bound enzymes, among them those of drug oxidation.
In data set [14] the test system is Mus musculus. As to the kind of experiment: In vivo intrinsic activity at D2 receptor in mouse brain assessed as inhibition of gamma-butyrolactone-induced increase in DOPA synthesis at 30 mg/kg, po administered 60 mins before gamma-butyrolactone challenge measured after 30 mins. Format: functional.
Data set [15] deals with T2, 5-hydroxytryptamine receptor 1A (Homo sapiens). As to the kind of experiment: Intrinsic activity at human […] 5HT1A receptor expressed in HeLa cells by FLIPR assay. Format: cell-based.
Data set [16] concerns Mus musculus. The data set is described as follows: Induction of catalepsy in mouse at 30 mg/kg, po. Format: organism-based. Details: dose 30 mg/kg, route oral. The settings on record: in vivo.
For data set [17], the system named is Mus musculus. As to the kind of experiment: Induction of catalepsy in mouse at 10 mg/kg, po. Format: organism-based. Details: dose 10 mg/kg, route oral. The settings on record: in vivo.
Data set [18] relates to Rattus norvegicus. The data set is described as follows: Ex vivo D2 receptor occupancy in po dosed rat striatum assessed as inhibition [3H]-raclopride binding at 82 ng/ml plasma concentration. Also on record: scale not given: the % may be the effect or the level left. Format: functional.
For data set [19], the system named is Rattus norvegicus. The data set is described as follows: Ex vivo D2 receptor occupancy in rat striatum assessed as inhibition [3H]-raclopride binding at 30 mg/kg, po. Also on record: scale not given: the % may be the effect or the level left. The format is functional.
For data set [20], the system named is Rattus norvegicus. The data set is described as follows: Ex vivo D2 receptor occupancy in po dosed rat striatum assessed as inhibition [3H]-raclopride binding at 243 ng/ml plasma concentration. Format: functional. Also on record: scale not given: the % may be the effect or the level left.

In the case of `c1ccc2c(N3CCN(CCCOc4ccc5c(c4)CNC5)CC3)cccc2c1`, the results for the Ki in [1] and in [3] were 0.149 nM and 1.76 nM, respectively. In addition, in [2], the Intrinsic activity is 77.8%.
Regarding `O=C1NCc2ccc(OCCCCN3CCN(c4cccc5ccccc45)CC3)cc21`, the inhibitory constant (Ki) (in general, the equilibrium dissociation constant of an inhibitor or competing ligand from its target) in [1] is 0.151 nM; in data set [5], 445 nM; in [8], 1850 nM; in data set [10], 16.5 nM; in [3] it was 4.95 nM; in [12], 2.22 nM. Also, the Activity was 55% in data set [4], 80% in [6], 94% in data set [9] and “Dose-dependent effect” in data set [11]. Further, the Kp in data set [7] worked out at 2.49. Further, the Intrinsic activity is 66.7% in [2] and 43% in data set [14]. Moreover, the minimal effective dose in data set [11] was 1 mg/kg. The CLint scaled – broadly, the capacity of the preparation to metabolise the compound, expressed as a volume cleared per time – in data set [13] stood at 23.7 mL/min/kg.
As to `O=C1NCc2ccc(OCCCN3CCN(c4cccc5ccccc45)CC3)cc21`, the Ki was 0.0152 nM in data set [1], 2810 nM in data set [8] and 0.541 nM in [12]. The Intrinsic activity in data set [15] worked out at 65.9%; in [2], 88.8%.
As to `Fc1ccc2cccc(N3CCN(CCCOc4ccc5c(c4)CNC5)CC3)c2c1`, the inhibition constant Ki in data set [1] worked out at 0.102 nM; in data set [8] it was 931 nM; in data set [3], 0.72 nM. Besides, the Intrinsic activity in [2] turned out to be 73.3%.
Turning to `O=C1NCc2ccc(OCCCCN3CCN(c4cccc5cc(F)ccc45)CC3)cc21`, the Ki in data set [1] turned out to be 13.4 nM; in [8], 969 nM; in data set [3], 9.53 nM.
For the compound `Fc1ccc2cccc(N3CCN(CCCCOc4ccc5c(c4)CNC5)CC3)c2c1`, the results for the Ki in data set [1], in [8] and in [3] were 0.243 nM, 1680 nM and 0.483 nM, respectively.
On to `O=C1NCc2ccc(OCCCN3CCN(c4cccc5cc(F)c(F)cc45)CC3)cc21`, for which the inhibitory constant (Ki) in [1] is 0.179 nM; in [8] it was 907 nM; in data set [3], 20.1 nM.
Regarding `O=C1NCc2ccc(OCCCN3CCN(c4cccc5cc(F)ccc45)CC3)cc21`, the inhibitory constant (Ki) was 1.54 nM in [1], 439 nM in data set [8] and 3.54 nM in data set [3].
In the case of `O=C1CCc2ccc(OCCCCN3CCN(c4cccc(Cl)c4Cl)CC3)cc2N1` [ARIPIPRAZOLE], the Intrinsic activity in [15] and in data set [14] was 43% each time. The minimal effective dose in [11] was determined as 3 mg/kg. The Activity entry in data set [16] is given as “Non-toxic”. Besides, in [13], the CLint scaled turned out to be 31.7 mL/min/kg.
For `O=C1NCc2ccc(OCCCCN3CCN(c4cccc5cccc(F)c45)CC3)cc21`, the Activity entry was “Non-toxic” in [17]; 78.5% in [18]; 53% in [4]; 99% in data set [19]; 92.3% in data set [20]; “Dose-dependent effect” in [11]. The Activity entry in data set [16] is “Non-toxic”. Besides, the Ki in [1] was 0.0504 nM; in [8], 2060 nM; in data set [10] it was 26 nM; in [3], 1.83 nM; in data set [12] it was 0.951 nM. In addition, in data set [7], the Kp was 1.81. In data set [11], the minimal effective dose turned out to be 1 mg/kg. The Intrinsic activity in data set [14] is 60%.
